Holding throughout (assay): MIC, broth dilution test
Holding throughout (assay type): cell-based
A general note: Broth dilution looks for growth in wells or tubes with falling amounts of substance.

For one test, the system named is Staph. aureus L 165. The following applies: Isosensitest broth, 24 h, 37° C. On the procedure: Culture media and growth conditions for MIC (minimal inhibitory concentration) determinations were as follows: Isosensitest broth (Oxoid), 24 h, for staphylococci, Strep. faecalis and Gram-negative bacteria (Escherichia coli); Todd-Hewitt broth (Difco), 24 h for other streptococcal species; GC base broth (Difco) +1% Isovitalex (BBL), 48 h, CO2 -enriched atmosphere for Neisseria gonorrhoeae; Brain Heart broth (Difco) +1% Supplement C (Difco), 48 h for Haemophilus influenzae. PPLO broth with supplements as in R. T. Evans and D. Taylor-Robinson (J. Antimicrob. Chemother. 4, 57), 24 h for U. urealyticum. Incubation was at 37° C. […] The minimal inhibitory concentrations (MIC, microgram/ml) for some microorganisms are reported below in Table I.

The test system of test [1] is Haemophilus influenzae type b L 970 ATCC 19418. The following applies: Brain Heart broth +1% Supplement C, 48 h, 37° C. On the procedure:
(§1) Culture media and growth conditions for MIC (minimal inhibitory concentration) determinations were as follows: Isosensitest broth (Oxoid), 24 h, for staphylococci, Strep. faecalis and Gram-negative bacteria (Escherichia coli); Todd-Hewitt broth (Difco), 24 h for other streptococcal species; GC base broth (Difco) +1% Isovitalex (BBL), 48 h, CO2 -enriched atmosphere for Neisseria gonorrhoeae; Brain Heart broth (Difco) +1% Supplement C (Difco), 48 h for Haemophilus influenzae. PPLO broth with supplements as in R. T. Evans and D. Taylor-Robinson (J. Antimicrob. Chemother. 4, 57), 24 h for U. urealyticum. Incubation was at 37° C. Inocula were as follows: about 10^4 color-changing units/ml for U. urealyticum; about 10^4 -10^5 colony-forming units/ml for other broth dilution MICs. The minimal inhibitory concentrations (MIC, microgram/ml) for some microorganisms are reported below in Table I.

Test [2] relates to Neisseria gonorrhoeae L 997 ISM 68/126. As to conditions: GC base broth +1% Isovitalex, 48 h, CO2-enriched atmosphere, 37° C. On the procedure:
as §1

The test system of test [3] is Staph. epidermidis L 147 ATCC 12228 (coagulase negative). As to conditions: Isosensitest broth, 24 h, 37° C. On the procedure:
as §1

The subject of test [4] is Strep. pyogenes L 49 C 203. The following applies: Todd-Hewitt broth, 24 h, 37° C. As to the method:
as §1

The test system of test [5] is Strep. mitis L 796 (clinical isolate). The following applies: Todd-Hewitt broth, 24 h, 37° C. On the procedure: as §1
In test [6] the test system is Escherichia coli L 47 SKF 12140. The following applies: Isosensitest broth, 24 h, 37° C. As to the method:
as §1

Test [7] relates to Ureaplasma urealyticum 1479 clin. isolate. As to conditions: PPLO broth with supplements, 24 h, about 10^4 color-changing units/ml, 37° C. On the procedure: as §1
The subject of test [8] is Staph. haemolyticus clin isolate. As to conditions: Isosensitest broth, 24 h, 37° C. As to the method: as §1
Test [9] has as its system Strep. faecalis L 149 ATCC 7080. As to conditions: Isosensitest broth, 24 h, 37° C. As to the method: as §1
Test [10] concerns Strep. pneumoniae L 44 UC 41. As to conditions: Todd-Hewitt broth, 24 h, 37° C. On the procedure: as §1

In the case of antibiotic A 42867 pseudoaglycon, the M.I.C. is on record as 1 microgram/ml in the test on Staph. aureus L 165 (Staph. aureus 10^6 cfu/ml); 2 microgram/ml in the test with Staph. aureus L 165 (Staph. aureus 30% bovine serum); 1 microgram/ml in the test with Staph. aureus L 165 (Staph. aureus L 165, 10^4 cfu/ml); greater than 128 microgram/ml in test [1]; 64 microgram/ml in test [2]; 2 microgram/ml in [3]. Besides, the M.I.C. is reported as 0.5 microgram/ml in test [4]; 0.5 microgram/ml in test [5]; greater than 128 microgram/ml in test [6]; greater than 128 microgram/ml in [7]; 2 microgram/ml in [8]; 2 microgram/ml in test [9]. For the same substance, in test [10], the M.I.C. is 1 microgram/ml.

The values above are taken from patent US4908351A, “Antibiotic a 42867 derivative” (Merrell Dow Pharmaceuticals Inc., priority 1988, dated 1990).
